US20250320207A1, “Ketal Protected Intermediate for Sonrotoclax and Preparation Method Thereof” (priority 2022, published 2025)

Method: The sample was tested by GC (carrier gas: N2) and HPLC (Column: Waters Xselect HSS T3 (150 mm*4.6 mm, 3.5 um) P/N: 186004786; mobile phase 0.05% TFA in water, ACN:MeOH=1:1, v/v; Flow: 1 ml/min; Temperature: 30° C.).

## C1COC2(CC3(CCNCC3)C2)OC1.Cl [1,5-dioxa-11-azadispiro[5.1.5.1]tetradecane hydrogen chloride]
  storage stability (result in words): stable enough
Stored at 2-8° C. for 3.5 months, double layered LDPE bag with desiccant inside heat-sealed aluminum foil bag, GC and HPLC
  Product, Impurity profile (RRT, Area %), RRT 1.00: 99.90 Area %
